Source: PubChem BioAssay (NCI)
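Method: 48-hour compound exposure of cells in 96-well plates, five concentrations, linear interpolation of endpoints. GI50: concentration for 50% inhibition of growth. The concentration for full growth arrest is given as TGI.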

Assays:
Assay in all cases: NCI anticancer screen, dose series, 48 h
[1] = tested on: NCI/ADR-RES ovarian
[2] = tested on: SNB-75 CNS
[3] = tested on: OVCAR-8 ovarian
[4] = tested on: NCI-H226 lung
[5] = tested on: COLO 205 colon
[6] = tested on: ACHN renal
[7] = tested on: SK-MEL-28 melanoma
[8] = tested on: PC-3 prostate
[9] = tested on: U251 CNS
[10] = tested on: SN12C renal

CCN1CCN(C(c2ccc(C(F)(F)F)cc2)c2ccc3cccnc3c2O)CC1 (centres undefined)
GI50 [1]: 1.77 µM | TGI [1]: 10.9 µM | GI50 [2]: 1.84 µM | TGI [2]: 17 µM | GI50 [3]: 1.85 µM | TGI [3]: 13.5 µM | GI50 [4]: 3.09 µM | TGI [4]: 13.7 µM | GI50 [5]: 3.35 µM | TGI [5]: 13.1 µM | GI50 [6]: 3.04 µM | TGI [6]: 11.2 µM | GI50 [7]: 3.68 µM | TGI [7]: 16.6 µM | GI50 [8]: 0.361 µM | TGI [8]: 17.6 µM | GI50 [9]: 0.658 µM | TGI [9]: 11.4 µM | GI50 [10]: 2.27 µM | TGI [10]: 15.3 µM

Cc1ccc(C)c(C2=C(c3cn(C)c4ccccc34)C(=O)NC2=O)c1
GI50 [1]: > 25 µM | TGI [1]: > 25 µM | GI50 [2]: 1.15 µM | TGI [2]: > 25 µM | GI50 [3]: > 24.2 µM | TGI [3]: > 25 µM | GI50 [4]: > 25 µM | TGI [4]: > 25 µM | GI50 [5]: 7.36 µM | TGI [5]: > 25 µM | GI50 [6]: 9.15 µM | TGI [6]: > 25 µM | GI50 [7]: > 25 µM | TGI [7]: > 25 µM | GI50 [8]: 13.8 µM | TGI [8]: > 25 µM | GI50 [9]: > 25 µM | TGI [9]: > 25 µM | GI50 [10]: > 25 µM | TGI [10]: > 25 µM

Cc1cc(I)cc(CN(C)CCCN2CCCCCCC2)c1O
GI50 [1]: 20.1 µM | TGI [1]: 45.3 µM | GI50 [2]: 15.4 µM | TGI [2]: 30.2 µM | GI50 [3]: 19.8 µM | TGI [3]: 43.4 µM | GI50 [4]: 16.3 µM | TGI [4]: 35 µM | GI50 [5]: 17.4 µM | TGI [5]: 37.1 µM | GI50 [6]: 18.1 µM | TGI [6]: 32.4 µM | GI50 [7]: 15.3 µM | TGI [7]: 31.2 µM | GI50 [8]: 15.8 µM | TGI [8]: 32.7 µM | GI50 [9]: 15 µM | TGI [9]: 29.2 µM | GI50 [10]: 18 µM | TGI [10]: 41.1 µM

OC[C@H]1C[C@](O)(c2ccc(Cl)cc2)[C@@H](c2ccc(Cl)cc2)O1
GI50 [1]: 30.3 µM | TGI [1]: 87.5 µM | GI50 [2]: 22.9 µM | TGI [2]: 87.7 µM | GI50 [3]: 31.2 µM | TGI [3]: 91.7 µM | GI50 [4]: 26.4 µM | TGI [4]: 72.8 µM | GI50 [5]: 25.6 µM | TGI [5]: 51.8 µM | GI50 [6]: 28 µM | TGI [6]: 97.3 µM | GI50 [7]: 28.9 µM | TGI [7]: 92.3 µM | GI50 [8]: 19.8 µM | TGI [8]: 57.5 µM | GI50 [9]: 24.8 µM | TGI [9]: 69.5 µM | GI50 [10]: 17 µM | TGI [10]: 35.8 µM

CCC(C)n1ncn(-c2ccc(N3CCN(c4ccc(OCC5COC(Cn6cncn6)(c6ccc(Cl)cc6Cl)O5)cc4)CC3)cc2)c1=O (centres undefined)
GI50 [1]: 26.1 µM | TGI [1]: > 100 µM | GI50 [2]: 11.4 µM | TGI [2]: 71.2 µM | GI50 [3]: 20.2 µM | TGI [3]: > 100 µM | GI50 [4]: 28.1 µM | TGI [4]: > 100 µM | GI50 [5]: 4.12 µM | TGI [5]: > 100 µM | GI50 [6]: 21.7 µM | TGI [6]: > 100 µM | GI50 [7]: > 100 µM | TGI [7]: > 100 µM | GI50 [8]: 3.96 µM | TGI [8]: > 100 µM | GI50 [9]: 4.03 µM | TGI [9]: > 100 µM | GI50 [10]: > 100 µM | TGI [10]: > 100 µM

O=C1NC(=O)C(c2cnc3ccccn23)=C1c1cn2c3c(cc(F)cc13)CN(C(=O)N1CCCCC1)CC2
GI50 [1]: 19.7 µM | TGI [1]: > 100 µM | TGI [2]: 46.3 µM | GI50 [3]: 6.89 µM | TGI [3]: > 92.1 µM | GI50 [4]: 3.7 µM | TGI [4]: 54.8 µM | GI50 [5]: 11.4 µM | TGI [5]: 36.9 µM | GI50 [6]: 1.37 µM | TGI [6]: > 72.5 µM | GI50 [7]: 19.5 µM | TGI [7]: 45 µM | GI50 [8]: 4.17 µM | TGI [8]: 41.8 µM | GI50 [9]: 1.89 µM | TGI [9]: 24.3 µM | GI50 [10]: 9.54 µM | TGI [10]: 54.6 µM

COc1cc(C2CC(c3cccc(Br)c3)=NN2C(C)=O)cc(OC)c1OC (centres undefined)
GI50 [1]: 0.324 µM | TGI [1]: 34 µM | GI50 [2]: 0.368 µM | TGI [2]: > 100 µM | GI50 [3]: 0.618 µM | TGI [3]: > 46.2 µM | GI50 [4]: 11.5 µM | TGI [4]: > 58.5 µM | GI50 [5]: 0.256 µM | TGI [5]: 0.802 µM | GI50 [6]: 0.71 µM | TGI [6]: > 84.4 µM | GI50 [7]: 3.8 µM | TGI [7]: > 77.9 µM | GI50 [8]: 0.162 µM | TGI [8]: 36.2 µM | GI50 [9]: 0.454 µM | TGI [9]: 53.4 µM | GI50 [10]: 2.76 µM | TGI [10]: > 81.4 µM

CS(=O)(=O)Nc1ccc2c(c1)oc(=O)c1ccccc12
TGI [1]: > 100 µM | TGI [2]: > 100 µM | TGI [3]: > 100 µM | TGI [4]: > 100 µM | TGI [5]: > 100 µM | TGI [6]: > 100 µM | TGI [7]: > 100 µM | TGI [8]: > 100 µM | TGI [9]: > 100 µM | TGI [10]: > 100 µM

C=C1CC[C@@H]2[C@](C)(COC(C)=O)[C@H](OC(C)=O)CC[C@@]2(C)[C@@H]1CC(Sc1ccccc1)C1=CCOC1=O (some centres undefined)
GI50 [1]: 2.1 µM | TGI [1]: 11 µM | GI50 [2]: 1.3 µM | TGI [2]: 2.9 µM | GI50 [3]: 1.46 µM | TGI [3]: 4.7 µM | GI50 [4]: 2.3 µM | TGI [4]: 5.98 µM | GI50 [5]: 1.49 µM | TGI [5]: 3.98 µM | GI50 [6]: 1.34 µM | TGI [6]: 2.84 µM | GI50 [7]: 1.62 µM | TGI [7]: 3.29 µM | GI50 [8]: 1.84 µM | TGI [8]: 10.1 µM | GI50 [9]: 1.56 µM | TGI [9]: 2.96 µM | GI50 [10]: 2.1 µM | TGI [10]: 7.07 µM

Clc1nc2ccccc2nc1CI
GI50 [1]: 4.1 µM | TGI [1]: 18.1 µM | GI50 [2]: 9.39 µM | TGI [2]: 30.1 µM | GI50 [3]: 3.42 µM | TGI [3]: 12.4 µM | GI50 [4]: 2.67 µM | TGI [4]: 8.24 µM | GI50 [5]: 2.17 µM | TGI [5]: 4.06 µM | GI50 [6]: 1.78 µM | TGI [6]: 3.27 µM | GI50 [7]: 9.31 µM | TGI [7]: 23 µM | GI50 [8]: 8.81 µM | TGI [8]: 22.5 µM | GI50 [9]: 7.38 µM | TGI [9]: 20.8 µM | GI50 [10]: 4.15 µM | TGI [10]: 15.6 µM
